From PubChem BioAssay AID292 (DTP/NCI, 2004) come the findings set out here.

The test system of the experiment is B6C3F1 mice, ip Sarcoma M5076, median survival T/C. Kind of experiment: NCI In Vivo Anticancer Drug Screen. Data for tumor model Sarcoma M5076 (intraperitoneal) in B6C3F1 mice. Conditions: endpoint: median survival time, higher = longer survival. In a few lines: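 Antitumour effect is judged in tumour-bearing mice by comparing survival after compound dosing against vehicle-only animals, reported as T/C.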

The mark [1] stands for this setting: dose: 12.5 mg/kg/injection, schedule: Q04DX004 (ip), vehicle: saline with Tween-80.
The mark [2] stands for this setting: dose: 25.0 mg/kg/injection, schedule: Q04DX004 (ip), vehicle: saline with Tween-80.
Setting [3] is: dose: 50.0 mg/kg/injection, schedule: Q04DX004 (ip), vehicle: Klucel (hydroxypropylcellulose) (HPC).
The mark [4] stands for this setting: dose: 100.0 mg/kg/injection, schedule: Q04DX004 (ip), vehicle: Klucel (hydroxypropylcellulose) (HPC).
Where [5] appears, read: dose: 200.0 mg/kg/injection, schedule: Q04DX004 (ip), vehicle: Klucel (hydroxypropylcellulose) (HPC).
The mark [6] stands for this setting: dose: 400.0 mg/kg/injection, schedule: Q04DX004 (ip), vehicle: Klucel (hydroxypropylcellulose) (HPC).
The mark [7] stands for this setting: dose: 800.0 mg/kg/injection, schedule: Q04DX004 (ip), vehicle: Klucel (hydroxypropylcellulose) (HPC).
Where [8] appears, read: dose: 75.0 mg/kg/injection, schedule: Q04DX004 (ip), vehicle: saline with Tween-80.
Setting [9] is: dose: 150.0 mg/kg/injection, schedule: Q04DX004 (ip), vehicle: saline with Tween-80.
Setting [10] is: dose: 300.0 mg/kg/injection, schedule: Q04DX004 (ip), vehicle: saline with Tween-80.
Setting [11] is: dose: 600.0 mg/kg/injection, schedule: Q04DX004 (ip), vehicle: saline with Tween-80.
[12] abbreviates: dose: 50.0 mg/kg/injection, schedule: Q04DX004 (ip), vehicle: saline with Tween-80.
Where [13] appears, read: dose: 100.0 mg/kg/injection, schedule: Q04DX004 (ip), vehicle: saline with Tween-80.
The mark [14] stands for this setting: dose: 200.0 mg/kg/injection, schedule: Q04DX004 (ip), vehicle: saline with Tween-80.
[15] abbreviates: dose: 400.0 mg/kg/injection, schedule: Q04DX004 (ip), vehicle: saline with Tween-80.

Values joined by “and” are separate entries in the source; they are usually repeats but may differ in a detail not shown here. Equal values may be shown once. Toxic doses and inconclusive results are not listed.

Turning to `NCc1cc(O)c(O)c(O)c1`, the T/C is, setting by setting: (dose: 75.0 mg/kg/injection, schedule: Q04DX004 (ip), vehicle: saline) 100 % of control and 106 % of control; (dose: 150.0 mg/kg/injection, schedule: Q04DX004 (ip), vehicle: saline) 100 % of control and 104 % of control; (dose: 300.0 mg/kg/injection, schedule: Q04DX004 (ip), vehicle: saline) 100 % of control and 104 % of control; (dose: 600.0 mg/kg/injection, schedule: Q04DX004 (ip), vehicle: saline) 101 % of control and 118 % of control; (dose: 1200.0 mg/kg/injection, schedule: Q04DX004 (ip), vehicle: saline) 104 % of control.
On to `O=C/C(Cl)=C(/Cl)C(=O)O`, for which the T/C reads like this: (dose: 6.25 mg/kg/injection, schedule: Q04DX004 (ip), vehicle: saline with Tween-80) 92 % of control; under setting [1], 104 % of control and 110 % of control; under setting [2], 109 % of control and 119 % of control.
Consider `CS(=O)(=O)OCCCNCCCOS(C)(=O)=O`, for which the T/C reads like this: (dose: 10.0 mg/kg/injection, schedule: Q04DX005 (ip), vehicle: saline) 150 % of control; (dose: 20.0 mg/kg/injection, schedule: Q04DX005 (ip), vehicle: saline) 185 % of control; (dose: 40.0 mg/kg/injection, schedule: Q04DX005 (ip), vehicle: saline) 319 % of control; (dose: 80.0 mg/kg/injection, schedule: Q04DX005 (ip), vehicle: saline) 319 % of control.
In the case of `CCCCCCCC1C(=O)OC2CC3C(C)=CC(=O)C(O)C3(C)C3C4(O)OCC23C1C(C)C4O` (centres undefined), the T/C runs as follows: (dose: 2.5 mg/kg/injection, schedule: Q04DX004 (ip), vehicle: Klucel (hydroxypropylcellulose) (HPC)) 109 % of control; (dose: 5.0 mg/kg/injection, schedule: Q04DX004 (ip), vehicle: Klucel (hydroxypropylcellulose) (HPC)) 108 % of control; (dose: 10.0 mg/kg/injection, schedule: Q04DX004 (ip), vehicle: Klucel (hydroxypropylcellulose) (HPC)) 109 % of control; (dose: 20.0 mg/kg/injection, schedule: Q04DX004 (ip), vehicle: Klucel (hydroxypropylcellulose) (HPC)) 106 % of control.
Regarding `COc1cc(C#N)c(NC(=S)N2CCN(C(=O)c3ccco3)CC2)cc1OC`, the T/C was 98 % of control under setting [3], 111 % of control under setting [4], 103 % of control under setting [5] and 90 % of control under setting [6].
In the case of `N#CC1C(=O)NC(=O)C(C#N)C1c1ccncc1` (centres undefined), the T/C by setting is: under setting [3], 100 % of control; under setting [4], 110 % of control; under setting [5], 91 % of control; under setting [6], 104 % of control; under setting [7], 96 % of control.
For the molecule `CN(C)CCCN=c1c2ccccc2n(C)c2[nH]c(=O)n(C)c(=O)c12`, the T/C is, setting by setting: (dose: 7.5 mg/kg/injection, schedule: Q04DX004 (ip), vehicle: saline) 101 % of control; (dose: 15.0 mg/kg/injection, schedule: Q04DX004 (ip), vehicle: saline) 99 % of control; (dose: 30.0 mg/kg/injection, schedule: Q04DX004 (ip), vehicle: saline) 102 % of control.
For the molecule `Cc1ccc(-c2c([N+](=O)[O-])c3ccccn3c2[N+](=O)[O-])cc1`, the T/C was 97 % of control under setting [8], 87 % of control under setting [9], 87 % of control under setting [10] and 101 % of control under setting [11].
As for `CC(O)C1(O)C(O)CC(OC2c3cc4c(c(O)c3[C@@H]3C[C@@]2(C)OC32C=c3cc[nH]c3=N2)C(=O)c2cccc(O)c2C4=O)OC1C` (some centres undefined), the T/C is, setting by setting: under setting [1], 104 % of control; under setting [2], 104 % of control; under setting [12], 92 % of control.
As for `NC(=O)c1ncn(C2CC3[O][Sn]([c]4ccccc4)([c]4ccccc4)[O]CC3O2)n1` (centres undefined), the T/C runs as follows: (dose: 31.13 mg/kg/injection, schedule: Q04DX004 (ip), vehicle: distilled water + Tween-80) 95 % of control; (dose: 62.5 mg/kg/injection, schedule: Q04DX004 (ip), vehicle: distilled water + Tween-80) 104 % of control; (dose: 125.0 mg/kg/injection, schedule: Q04DX004 (ip), vehicle: distilled water + Tween-80) 114 % of control; (dose: 250.0 mg/kg/injection, schedule: Q04DX004 (ip), vehicle: distilled water + Tween-80) 114 % of control; (dose: 500.0 mg/kg/injection, schedule: Q04DX004 (ip), vehicle: distilled water + Tween-80) 122 % of control.
On to `Clc1nc2cc3c(cc2n2cccc12)oc1ccccc13`, for which the T/C runs as follows: under setting [2], 93 % of control; under setting [12], 95 % of control; under setting [13], 94 % of control; under setting [14], 86 % of control; under setting [15], 86 % of control.
Regarding `N#CC1C(=O)NC(=S)NC1c1ccc(Cl)c(Cl)c1` (centres undefined), the T/C is 94 % of control (dose: 37.5 mg/kg/injection, schedule: Q04DX004 (ip), vehicle: Klucel (hydroxypropylcellulose) (HPC)); 99 % of control (dose: 75.0 mg/kg/injection, schedule: Q04DX004 (ip), vehicle: Klucel (hydroxypropylcellulose) (HPC)); 97 % of control (dose: 150.0 mg/kg/injection, schedule: Q04DX004 (ip), vehicle: Klucel (hydroxypropylcellulose) (HPC)); 91 % of control (dose: 300.0 mg/kg/injection, schedule: Q04DX004 (ip), vehicle: Klucel (hydroxypropylcellulose) (HPC)); 89 % of control (dose: 600.0 mg/kg/injection, schedule: Q04DX004 (ip), vehicle: Klucel (hydroxypropylcellulose) (HPC)).
Consider `NC(=O)c1[nH]cnc1O`, for which the T/C was 102 % of control under setting [12]; 101 % of control and 105 % of control under setting [13]; 100 % of control and 105 % of control under setting [14]; 118 % of control under setting [15].
Turning to `Cn1c(-c2ccc(/C=N\N3CCN(/N=C/c4ccc(-c5c[n+]6ccsc6n5C)cc4)CC3)cc2)c[n+]2ccsc12`, the T/C (dose: 1.5 mg/kg/injection, schedule: Q04DX004 (ip), vehicle: saline with Tween-80) was 109 % of control; the T/C (dose: 3.0 mg/kg/injection, schedule: Q04DX004 (ip), vehicle: saline with Tween-80) was 104 % of control; the T/C (dose: 6.0 mg/kg/injection, schedule: Q04DX004 (ip), vehicle: saline with Tween-80) was 101 % of control.
As to `CCC(=O)[O][Bi]([c]1ccccc1)[c]1ccccc1`, the T/C reads like this: (dose: 3.0 mg/kg/injection, schedule: Q04DX004 (ip), vehicle: Klucel (hydroxypropylcellulose) (HPC)) 101 % of control; (dose: 6.0 mg/kg/injection, schedule: Q04DX004 (ip), vehicle: Klucel (hydroxypropylcellulose) (HPC)) 98 % of control; (dose: 12.0 mg/kg/injection, schedule: Q04DX004 (ip), vehicle: Klucel (hydroxypropylcellulose) (HPC)) 102 % of control; (dose: 24.0 mg/kg/injection, schedule: Q04DX004 (ip), vehicle: Klucel (hydroxypropylcellulose) (HPC)) 89 % of control.
As to `CC1=CC(C)(C)Nc2ccc(OC(=O)/C=C(C)/C=C/C=C(C)/C=C/C3=C(C)CCCC3(C)C)cc21`, the T/C runs as follows: (dose: 37.5 mg/kg/injection, schedule: Q04DX004 (ip), vehicle: saline with Tween-80) 96 % of control; under setting [8], 98 % of control; under setting [9], 98 % of control; under setting [10], 89 % of control; under setting [11], 89 % of control.
Consider `C=CCNC(=O)c1ccccc1SC(C)=O`, for which the T/C is, setting by setting: under setting [12], 103 % of control; under setting [13], 96 % of control; under setting [14], 90 % of control; under setting [15], 103 % of control.
In the case of `Nc1ccccc1Sc1cc(Cl)nnc1Cl`, the T/C under setting [12] was 97 % of control, the T/C under setting [13] is 98 % of control, the T/C under setting [14] is 102 % of control and the T/C under setting [15] was 88 % of control.
Regarding `N#CC1C(=O)NC(=O)C(C#N)C1c1ccc(C2C(C#N)C(=O)NC(=O)C2C#N)cc1` (centres undefined), the T/C is 100 % of control under setting [3]; 97 % of control under setting [4]; 100 % of control under setting [5]; 96 % of control under setting [6]; 100 % of control under setting [7].
Regarding `CN1C(=O)C2CC(O)C(SC3CC4C(=O)N(C)C(=O)C4CC3O)CC2C1=O` (centres undefined), the T/C by setting is: (dose: 37.5 mg/kg/injection, schedule: Q04DX004 (ip), vehicle: water) 101 % of control; (dose: 75.0 mg/kg/injection, schedule: Q04DX004 (ip), vehicle: water) 105 % of control; (dose: 150.0 mg/kg/injection, schedule: Q04DX004 (ip), vehicle: water) 102 % of control; (dose: 300.0 mg/kg/injection, schedule: Q04DX004 (ip), vehicle: water) 97 % of control; (dose: 600.0 mg/kg/injection, schedule: Q04DX004 (ip), vehicle: water) 107 % of control.
